Test results from patent US11787839B2, “Targeting α2δ-1-bound glutamate receptors for treating diseases and disorders” (Board of Regents, The University of Texas System, priority 2017, dated 2023).

Tests used:
WT mice = experiment: Paclitaxel-induced pain hypersensitivity in mice; format: in vivo, mouse
Procedure: To induce neuropathic pain, rats and mice were intraperitoneally injected with paclitaxel (2 mg/kg; TEVA Pharmaceuticals, North Wales, Pa.) every 2 days for a total of 4 injections (days 1, 3, 5 and 7; total dose, 8 mg/kg), as described previously (Polomano et al., 2001). Animals in the control group were intraperitoneally injected with the vehicle (Cremophor EL/ethanol, 1:1) on the same 4 days. The presence of tactile allodynia was confirmed 10 to 12 days after drug treatment. Intrathecal catheters were implanted in some paclitaxel-treated rats during isoflurane-induced anesthesia. […]
(§1) To assess the thermal sensitivity of rats, the were placed individually on the glass surface of a thermal testing apparatus (IITC Life Sciences, Woodland Hills, Calif.). […] The paw withdrawal latency was recorded with a timer, and the hindpaw was tested twice to obtain an average time. […] After the threshold temperature was recorded, the mice were immediately removed from the plate. The heat threshold measurement was repeated 30 min later, and the average of the 2 recorded temperatures was considered as the heat threshold. The cold threshold was measured by cooling the plate from 30° C. at a rate of 6° C./min until nocifensive behaviors were observed. […]

paclitaxel-treated rats = experiment: Paclitaxel-induced pain hypersensitivity in rats; format: in vivo, rat; conditions: paclitaxel- vs vehicle-treated rats
Procedure: (§2) To induce neuropathic pain, rats and mice were intraperitoneally injected with paclitaxel (2 mg/kg; TEVA Pharmaceuticals, North Wales, Pa.) every 2 days for a total of 4 injections (days 1, 3, 5 and 7; total dose, 8 mg/kg), as described previously (Polomano et al., 2001). Animals in the control group were intraperitoneally injected with the vehicle (Cremophor EL/ethanol, 1:1) on the same 4 days. The presence of tactile allodynia was confirmed 10 to 12 days after drug treatment. Intrathecal catheters were implanted in some paclitaxel-treated rats during isoflurane-induced anesthesia. Briefly, a small puncture was made in the atlanto-occipital membrane of the cisterna magna and inserted a PE-10 catheter with the caudal tip reaching the lumbar enlargement of the spinal cord (Chen et al., 2014a; Xie et al., 2016).
Behavioral assessment of nociception: To measure tactile allodynia, mice or rats were individually placed on a mesh floor within a suspended chamber. […]
To quantify the mechanical nociceptive threshold in rats, the paw pressure (Randall-Selitto) test was conducted on the left hindpaw using an analgesiometer (Ugo Basile, Varese, Italy). […] When the rat withdrew its paw or vocalized, the pedal was immediately released, and the withdrawal threshold was recorded (Chen et al., 2014a). […]
as §1

α2δ-1 = α2δ-1 expression, α2δ-1-GluN1 complex and synaptosomal proteins after paclitaxel; format: in vivo, rat; conditions: paclitaxel- vs vehicle-treated rats
Procedure: as §2
Quantitative PCR: Rats were deeply anesthetized with 5% isoflurane, and the DRG and dorsal half of spinal cord tissues at the L5 and L6 levels were removed. Total RNA was extracted from the DRG and spinal cord tissues using TRIsure (Cat. #BIO-38032, Bioline, Taunton, Mass.). After treatment with RNase-free DNase (Cat. #79254, QIAGEN, Hilden, Germany), 500 ng RNA was used for reverse transcription with a RevertAid RT Reverse Transcription Kit (Cat. #K1619, Thermo Fisher Scientific, Waltham, Mass.). One μL of 5-times diluted cDNA was added to a 10-μL reaction volume with SYBR Green Real-Time PCR Mix (Cat. #A25780, Thermo Fisher Scientific). Real-time PCR was performed using a QuantStudio 7 Flex Real-Time PCR System (Applied Biosystems, Waltham, Mass.). The thermal cycling conditions used were: 1 cycle at 95° C. for 10 min, 40 cycles at 95° C. for 15 s, and 60° C. for 60 s. The following primers were used: α2δ-1 forward, […] (SEQ ID NO:60); α2δ-1 reverse, […] (SEQ ID NO:61); α2δ-2 forward, […] (SEQ ID NO:62); α2δ-2 reverse, […] (SEQ ID NO:63); α2δ-3 forward, […] (SEQ ID NO:64); α2δ-3 reverse, […] (SEQ ID NO:65); Gapdh forward, […] (SEQ ID NO:66); Gapdh reverse. […] (SEQ ID NO:67). Relative mRNA levels were calculated using the 2−ΔΔCT method and normalized to the Gapdh level in the same sample.
Coimmunoprecipitation using spinal cord tissue membrane extracts: Tissues from the dorsal halves of the rat spinal cord at the L5 and L6 levels were collected under isoflurane anesthesia and homogenized in ice-cold hypotonic buffer (20 mM Tris [pH 7.4], 1 mM CaCl2), 1 mM MgCl2, and protease inhibitors) for extracting membrane proteins. The nuclei and unbroken cells were removed by centrifugation at 300×g for 5 min, and the supernatant was centrifuged for 20 min at 21,000×g. The pellets were re-suspended and solubilized in immunoprecipitation buffer (50 mM Tris [pH7.4], 250 mM NaCl, 10% glycerol, 0.5% NP-40, 20 mM NaF, 1 mM Na3VO4, 10 mM N-ethylmaleimide, 1 mM phenylmethylsulfonyl fluoride, 2 mM benzamide, and protease inhibitors), and the soluble fraction was incubated at 4° C. overnight with Protein A/G beads ([…], Millipore, Darmstadt, Germany) prebound to mouse anti-GluN1 antibody (#75-272, 1:1000, NeuroMab, Davis, Calif.). Protein A/G beads prebound to mouse IgG were uses as the control. All samples were washed 3 times with immunoprecipitation buffer and then immunoblotted with rabbit anti-α2δ-1 (#ACC-015, 1:500, Alomone Labs, Jerusalem, Israel) and rabbit anti-GluN1 antibodies (#G8913, 1:1,000, Sigma-Aldrich, St. Louis, Mo.). The amount of the α2δ-1-GluN1 protein complex was calculated by normalizing the amount of α2δ-1 to that of GluN1 on the same gel. […]

[1] = target: presynaptic NMDARs of spinal lamina II neurons (Rattus norvegicus, UniProt P35439+Q00959+Q00960)
Sequence of presynaptic NMDARs of spinal lamina II neurons (Q00959 20-1464 limits assumed, other chains not shown): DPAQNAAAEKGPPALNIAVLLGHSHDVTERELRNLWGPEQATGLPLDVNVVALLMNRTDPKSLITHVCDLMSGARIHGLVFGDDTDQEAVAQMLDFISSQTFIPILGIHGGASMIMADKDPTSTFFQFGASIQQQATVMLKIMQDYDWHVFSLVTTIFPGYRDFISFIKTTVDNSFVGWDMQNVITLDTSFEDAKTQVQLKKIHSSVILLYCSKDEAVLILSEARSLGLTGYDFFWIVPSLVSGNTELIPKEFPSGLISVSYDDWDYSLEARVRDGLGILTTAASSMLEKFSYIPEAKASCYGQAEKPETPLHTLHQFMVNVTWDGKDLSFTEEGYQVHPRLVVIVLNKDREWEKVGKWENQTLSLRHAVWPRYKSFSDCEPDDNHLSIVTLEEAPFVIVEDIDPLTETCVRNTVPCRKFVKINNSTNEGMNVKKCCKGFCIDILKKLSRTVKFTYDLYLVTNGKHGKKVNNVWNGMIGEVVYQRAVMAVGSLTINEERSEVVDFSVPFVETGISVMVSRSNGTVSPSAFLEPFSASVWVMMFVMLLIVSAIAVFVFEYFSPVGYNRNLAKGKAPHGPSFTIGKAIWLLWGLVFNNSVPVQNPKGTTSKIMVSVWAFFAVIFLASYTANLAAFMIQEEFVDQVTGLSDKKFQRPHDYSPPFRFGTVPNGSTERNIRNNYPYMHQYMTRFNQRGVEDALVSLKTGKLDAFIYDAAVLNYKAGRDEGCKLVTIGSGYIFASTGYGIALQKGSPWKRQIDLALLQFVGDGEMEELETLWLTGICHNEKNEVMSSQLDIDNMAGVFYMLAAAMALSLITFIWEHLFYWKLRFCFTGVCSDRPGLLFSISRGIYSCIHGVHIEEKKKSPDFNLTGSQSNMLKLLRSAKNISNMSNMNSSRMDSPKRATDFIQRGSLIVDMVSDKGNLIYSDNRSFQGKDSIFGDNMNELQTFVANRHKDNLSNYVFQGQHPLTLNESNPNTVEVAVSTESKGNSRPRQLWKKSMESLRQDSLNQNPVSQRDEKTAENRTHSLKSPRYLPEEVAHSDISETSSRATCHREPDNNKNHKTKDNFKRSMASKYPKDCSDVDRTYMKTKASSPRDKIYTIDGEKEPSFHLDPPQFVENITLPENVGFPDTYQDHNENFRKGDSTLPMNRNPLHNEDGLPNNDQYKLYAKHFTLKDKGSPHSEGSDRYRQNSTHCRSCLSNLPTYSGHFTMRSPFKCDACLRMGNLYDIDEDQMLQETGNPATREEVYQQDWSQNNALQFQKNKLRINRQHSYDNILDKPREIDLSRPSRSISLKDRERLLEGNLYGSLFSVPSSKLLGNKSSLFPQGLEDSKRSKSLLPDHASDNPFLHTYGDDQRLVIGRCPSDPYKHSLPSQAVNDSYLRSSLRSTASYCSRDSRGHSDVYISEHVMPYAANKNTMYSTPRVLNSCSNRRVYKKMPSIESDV
Sequence of presynaptic NMDARs of spinal lamina II neurons (Q00960 27-1482, other chains not shown): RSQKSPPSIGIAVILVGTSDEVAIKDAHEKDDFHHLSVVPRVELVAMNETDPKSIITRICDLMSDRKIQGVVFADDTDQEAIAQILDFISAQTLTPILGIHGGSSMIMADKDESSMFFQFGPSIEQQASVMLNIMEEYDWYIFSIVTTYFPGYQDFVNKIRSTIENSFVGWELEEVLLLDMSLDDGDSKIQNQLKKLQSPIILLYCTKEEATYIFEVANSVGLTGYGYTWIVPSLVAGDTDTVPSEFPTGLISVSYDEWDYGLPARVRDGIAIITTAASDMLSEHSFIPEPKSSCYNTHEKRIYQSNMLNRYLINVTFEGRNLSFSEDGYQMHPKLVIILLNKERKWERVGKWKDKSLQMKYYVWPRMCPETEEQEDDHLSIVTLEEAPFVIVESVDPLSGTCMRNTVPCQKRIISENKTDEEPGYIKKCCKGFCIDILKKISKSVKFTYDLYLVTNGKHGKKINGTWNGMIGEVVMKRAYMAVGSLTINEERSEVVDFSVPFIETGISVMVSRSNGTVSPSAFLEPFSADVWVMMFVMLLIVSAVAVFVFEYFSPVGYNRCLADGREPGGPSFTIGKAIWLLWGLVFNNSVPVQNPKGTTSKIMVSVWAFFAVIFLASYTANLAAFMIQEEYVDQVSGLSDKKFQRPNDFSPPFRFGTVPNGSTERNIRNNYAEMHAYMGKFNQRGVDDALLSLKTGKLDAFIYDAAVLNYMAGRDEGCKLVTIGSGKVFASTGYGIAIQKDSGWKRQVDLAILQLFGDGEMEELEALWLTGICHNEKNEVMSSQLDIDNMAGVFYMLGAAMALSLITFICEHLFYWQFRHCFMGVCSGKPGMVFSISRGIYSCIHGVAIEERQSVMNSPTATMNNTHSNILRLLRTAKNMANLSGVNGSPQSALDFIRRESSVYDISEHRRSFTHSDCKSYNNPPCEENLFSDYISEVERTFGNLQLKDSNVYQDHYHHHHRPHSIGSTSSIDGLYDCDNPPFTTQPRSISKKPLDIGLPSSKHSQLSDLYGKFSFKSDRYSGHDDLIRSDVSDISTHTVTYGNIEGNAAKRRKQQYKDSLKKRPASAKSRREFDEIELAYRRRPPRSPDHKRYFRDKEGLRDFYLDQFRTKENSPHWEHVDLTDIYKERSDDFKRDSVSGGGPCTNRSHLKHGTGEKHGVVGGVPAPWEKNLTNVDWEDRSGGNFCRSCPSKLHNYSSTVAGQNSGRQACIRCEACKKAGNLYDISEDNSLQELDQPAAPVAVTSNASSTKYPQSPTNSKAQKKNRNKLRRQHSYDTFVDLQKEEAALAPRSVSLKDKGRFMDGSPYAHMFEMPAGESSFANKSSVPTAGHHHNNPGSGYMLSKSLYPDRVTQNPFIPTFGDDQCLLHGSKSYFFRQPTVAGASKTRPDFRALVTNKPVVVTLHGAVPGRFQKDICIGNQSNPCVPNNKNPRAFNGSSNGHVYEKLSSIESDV

## CC(=O)O[C@H]1C(=O)[C@@]2(C)[C@H]([C@H](OC(=O)c3ccccc3)[C@]3(O)C[C@H](OC(=O)[C@H](O)[C@@H](NC(=O)c4ccccc4)c4ccccc4)C(C)=C1C3(C)C)[C@]1(OC(C)=O)CO[C@@H]1C[C@@H]2O [paclitaxel]
WT mice
  duration of hypersensitivity after the last injection: at least 10 days
  pain hypersensitivity after systemic paclitaxel: induced tactile allodynia and heat and cold hyperalgesia
paclitaxel-treated rats
  withdrawal thresholds to tactile, noxious pressure and noxious heat stimuli: lower withdrawal thresholds
α2δ-1
  mRNA level of α2δ-2 or α2δ-3 in the DRG and dorsal spinal cord: similar
  α2δ-1-GluN1 complex in the dorsal spinal cord: significantly higher
  α2δ-1 and GluN1 protein levels in spinal synaptosomes: significantly higher
  α2δ-1 mRNA levels in the DRG and dorsal spinal cord: substantially higher
  α2δ-1 protein levels in the DRG and spinal cord: much higher
[1]
  baseline amplitude of evoked monosynaptic EPSCs: significantly larger
  baseline frequency of mEPSCs in lamina II neurons: significantly higher
  paired-pulse ratio (PPR) in lamina II neurons: significantly reduced
